According to patent publication US20240417405A1, “Substituted Spiro Derivatives” (Janssen Pharmaceutica NV, priority 2021, published 2024):
Like-named read-outs stand apart in the source and are kept apart here.

Experiments:
[1] = biological target: T1, menin/MLL (terbium chelate-labeled menin, FITC-MBM1 peptide) (Homo sapiens, UniProt O00255, T541A); experiment: Menin/MLL homogenous time-resolved fluorescence (HTRF) assay; format: binding; conditions: 30 min incubation
T1 construct: Menin (a.a 1-610-6xhis tag)
T1 sequence (O00255 with tags, fused parts or gaps T541A): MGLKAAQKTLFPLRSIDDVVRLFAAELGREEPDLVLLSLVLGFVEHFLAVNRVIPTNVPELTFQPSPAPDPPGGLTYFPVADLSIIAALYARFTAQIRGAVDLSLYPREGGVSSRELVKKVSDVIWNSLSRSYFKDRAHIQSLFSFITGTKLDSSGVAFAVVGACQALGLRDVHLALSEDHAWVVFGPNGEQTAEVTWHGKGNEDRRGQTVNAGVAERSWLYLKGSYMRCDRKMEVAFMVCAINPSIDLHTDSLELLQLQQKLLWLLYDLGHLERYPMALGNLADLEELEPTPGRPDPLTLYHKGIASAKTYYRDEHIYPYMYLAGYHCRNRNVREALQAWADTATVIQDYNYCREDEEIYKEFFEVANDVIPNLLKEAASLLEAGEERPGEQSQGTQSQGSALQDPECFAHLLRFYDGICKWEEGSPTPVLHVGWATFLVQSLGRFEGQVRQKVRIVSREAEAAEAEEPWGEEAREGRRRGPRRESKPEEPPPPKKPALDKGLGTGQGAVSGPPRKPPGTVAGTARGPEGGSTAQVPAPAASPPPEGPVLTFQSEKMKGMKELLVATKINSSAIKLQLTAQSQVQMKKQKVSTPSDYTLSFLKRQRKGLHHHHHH
Procedure: 1) Menin/MLL Homogenous Time-Resolved Fluorescence (HTRF) Assay
To an untreated, white 384-well microtiter plate was added 40 nL 200× test compound in DMSO and 4 μL 2× terbium chelate-labeled menin (vide infra for preparation) in assay buffer (40 mM Tris.HCl, pH 7.5, 50 mM NaCl, 1 mM DTT (dithiothreitol) and 0.05% Pluronic F-127). After incubation of test compound and terbium chelate-labeled menin for 30 min at ambient temperature, 4 μL 2× FITC-MBM1 peptide (FITC-β-alanine-SARWRFPARPGT-NH2 (SEQ ID NO: 3)) (“FITC” means fluorescein isothiocyanate) in assay buffer was added, the microtiter plate centrifuged at 1000 rpm for 1 min and the assay mixtures incubated for 15 min at ambient temperature. The relative amount of menin FITC-MBM1 complex present in an assay mixture is determined by measuring the homogenous time-resolved fluorescence (HTRF) of the terbium/FITC donor/acceptor fluorophore pair using an EnVision microplate reader (ex. 337 nm/terbium em. 490 nm/FITC em. 520 nm) at ambient temperature. The degree of fluorescence resonance energy transfer (the HTRF value) is expressed as the ratio of the fluorescence emission intensities of the FITC and terbium fluorophores (F^em 520 nm/F^em 490 nm). The final concentrations of reagents in the binding assay are 200 pM terbium chelate-labeled menin, 75 nM FITC-MBM1 peptide and 0.5% DMSO in assay buffer. Dose-response titrations of test compounds are conducted using an 11 point, four-fold serial dilution scheme, starting typically at 10 μM.
Compound potencies were determined by first calculating % inhibition at each compound concentration according to equation 1:
% inhibition=((HC−LC)−(HTRF^compound−LC))/(HC−LC))*100 (Eqn 1)
Where LC and HC are the HTRF values of the assay in the presence or absence of a saturating concentration of a compound that competes with FITC-MBM1 for binding to menin, and HTRF^compound is the measured HTRF value in the presence of the test compound. HC and LC HTRF values represent an average of at least 10 replicates per plate.
% inhibition=Bottom+(Top−Bottom)/(1+10^((logIC50−log[cmpd])*h)) (Eqn 2)
Where Bottom and Top are the lower and upper asymptotes of the dose-response curve, respectively, IC50 is the concentration of compound that yields 50% inhibition of signal and h is the Hill coefficient. IC50 values below 0.1 nM in the HTRF assay were reported as 0.1 nM in the Table below (detection limit).
Preparation of Terbium cryptate labeling of Menin: Menin (a.a 1-610-6xhis tag (“6xhis tag” disclosed as SEQ ID NO: 2), 2.3 mg/mL in 20 mM Hepes (2-[4-(2-Hydroxyethyl)-1-piperazinyl]ethane sulfonic acid), 80 mM NaCl, 5 mM DTT (Dithiothreitol), pH 7.5) was labeled with terbium cryptate as follows. 200 μg of Menin was buffer exchanged into 1× Hepes buffer. 6.67 μM Menin was incubated with 8-fold molar excess NHS (N-hydroxysuccinimide)-terbium cryptate for 40 minutes at room temperature. Half of the labeled protein was purified away from free label by running the reaction over a NAP5 column with elution buffer (0.1 M Hepes, pH 7+0.1% BSA (bovine serum albumin)). The other half was eluted with 0.1 M phosphate buffered saline (PBS), pH7. 400 μl of eluent was collected for each, aliquoted and frozen at −80° C. The final concentration of terbium-labeled Menin protein was 115 μg/mL in Hepes buffer and 85 μg/mL in PBS buffer, respectively.

MOLM14 cells = experiment: Proliferation assay, spheroid-like growth, MOLM14 (MLL-AF9 rearranged); format: cell-based, human; conditions: 8 days, confluence as measure of spheroid size, read-out: spheroid assay_OneTime MOLM14 IC50
Procedure: The anti-proliferative effect of menin/MLL protein/protein interaction inhibitor test compounds was assessed in human leukemia cell lines. The cell line MOLM14 harbors a MLL translocation and expresses the MLL fusion proteins MLL-AF9, respectively, as well as the wildtype protein from the second allele. […] KO-52 was used as a control cell line containing two MLL (KMT2A) wildtype alleles in order to exclude compounds that display general cytotoxic effects.
MOLM14 cells were cultured in RPMI-1640 (Sigma Aldrich) supplemented with 10% heat-inactivated fetal bovine serum (HyClone), 2 mM L-glutamine (Sigma Aldrich) and 50 μg/ml gentamycin (Gibco). KO-52 cell lines were propagated in alpha-MEM (Sigma Aldrich) supplemented with 20% heat-inactivated fetal bovine serum (HyClone), 2 mM L-glutamine (Sigma Aldrich) and 50 μg/ml gentamycin (Gibco).
In order to assess the anti-proliferative effects, 200 MOLM14 cells, or 300 KO-52 cells were seeded in 200 μl media per well in 96-well round bottom, ultra-low attachment plates (Costar, catalogue number 7007). Cell seeding numbers were chosen based on growth curves to ensure linear growth throughout the experiment. Test compounds were added at different concentrations and the DMSO content was normalized to 0.3%. Cells were incubated for 8 days at 37° C. and 5% CO2. Spheroid like growth was measured in real-time by live-cell imaging (IncuCyteZOOM, Essenbio, 4× objective) acquiring images at day 8. Confluence (%) as a measure of spheroid size was determined using an integrated analysis tool.
In order to determine the effect of the test compounds over time, the confluence in each well as a measure of spheroid size, was calculated. Confluence of the highest dose of a reference compound was used as baseline for the LC (Low control) and the confluence of DMSO treated cells was used as 0% cytotoxicity (High Control, HC).
Absolute IC50 values were calculated as percent change in confluence as follows:
LC=Low Control: cells treated with e.g. 1 μM of the cytotoxic agent staurosporin, or e.g. cells treated with a high concentration of an alternative reference compound
GraphPad Prism (version 7.00) was used to calculate the IC50. Dose-response equation was used for the plot of % Effect vs Log 10 compound concentration with a variable slope and fixing the maximum to 100% and the minimum to 0%.

| SMILES | IC50 [1] | IC50 (MOLM14 cells; Homo sapiens, MOLM-14, 192 h) | IC50 (MOLM14 cells) |
| --- | --- | --- | --- |
| CC(C)[C@H]([C@H]1C[C@@H](Nc2ncnc3[nH]ncc23)C1)N1CC2(CCN(c3ncnnc3Oc3ccc(F)cc3-c3cncnc3C3CC3)C2)C1 (single isomer, unassigned) [Compound 422] | ~0.27 nM | 88 nM | – |
| Cc1ncc(-c2cc(F)ccc2Oc2nncnc2N2CCC3(C2)CN([C@@H](C(C)C)[C@H]2C[C@@H](N4CCC5(CN(C(=O)C6CC6)C5)C4)C2)C3)c(C2CC2)n1 [Compound 380] | 0.16 nM | 3.7 nM | – |
| Cc1ncc(-c2cc(F)ccc2Oc2nncnc2N2CCC3(C2)CN([C@@H](C(C)C)[C@H]2C[C@@H](N4CC[C@H](C(=O)NC5CC5)C4)C2)C3)c(C2CC2)n1 [Compound 384] | 0.085 nM | 0.7 nM | – |
| CC(=O)Nc1nnc(N[C@H]2C[C@@H]([C@@H](C(C)C)N3CC4(CCN(c5ncnnc5Oc5ccc(F)cc5-c5cncnc5C5CC5)C4)C3)C2)s1 (single isomer, unassigned) [Compound 454] | 0.17 nM | 13 nM | – |
| CNC(=O)c1ncc(N[C@H]2C[C@@H]([C@@H](C(C)C)N3CC4(CCN(c5ncnnc5Oc5ccc(F)cc5-c5cncnc5C5CC5)C4)C3)C2)s1 (single isomer, unassigned) [Compound 449] | 0.09 nM | 8.4 nM | – |
| COc1cc(N[C@H]2C[C@@H]([C@@H](C(C)C)N3CC4(CCN(c5ncnnc5Oc5ccc(F)cc5-c5cncnc5C5CC5)C4)C3)C2)cnn1 (single isomer, unassigned) [Compound 419] | 0.14 nM | 5 nM | – |
| CC(C)[C@@H]([C@H]1C[C@@H](N2CC3(CCCO3)C2)C1)N1CC2(CCN(c3ncnnc3Oc3ccc(F)cc3-c3nnccc3C3CC3)C2)C1 (single isomer, unassigned) [Compound 265] | 0.1 nM | 11 nM | – |
| CC(C)[C@@H]([C@H]1C[C@H](N2CCC3(CCO3)CC2)C1)N1CC2(CCN(c3ncnnc3Oc3ccc(F)cc3-c3cnncc3C3CC3)C2)C1 (single isomer, unassigned) [Compound 281b] | 0.31 nM | 83 nM | – |
| Cc1ncc(-c2cc(F)ccc2Oc2nncnc2N2CCC3(C2)CN([C@@H](C(C)C)[C@H]2C[C@@H](N4C[C@H]5COC[C@H]5C4)C2)C3)c(C2CC2)n1 [Compound 396] | 0.059 nM | < 1.8 nM | – |
| CO[C@H]1[C@@H]2CN([C@H]3C[C@@H]([C@H](C(C)C)N4CC5(CCN(c6ncnnc6Oc6ccc(F)cc6-c6nnc(C)cc6C6CC6)C5)C4)C3)C[C@@H]21 [Compound 402] | 0.17 nM | 9 nM | – |
| COC(=O)Nc1cc(N[C@H]2C[C@@H]([C@@H](C(C)C)N3CC4(CCN(c5ncnnc5Oc5ccc(F)cc5-c5cncnc5C5CC5)C4)C3)C2)ccn1 (single isomer, unassigned) [Compound 427] | ~0.11 nM | < 1.8 nM | – |
| CC(=O)Nc1cc(N[C@H]2C[C@@H]([C@@H](C(C)C)N3CC4(CCN(c5ncnnc5Oc5ccc(F)cc5-c5cncnc5C5CC5)C4)C3)C2)ncn1 (single isomer, unassigned) [Compound 418] | 0.07 nM | 9 nM | – |
| CC(=O)N1CC2CN([C@H]3C[C@@H]([C@H](C(C)C)N4CC5(CCN(c6ncnnc6Oc6ccc(F)cc6-c6cnc(C)nc6C6CC6)C5)C4)C3)CC2C1 (stereo partly shown) [Compound 378] | 0.106 nM | – | 1.6 nM |
| CNC(=O)c1ccnc(N[C@H]2C[C@@H]([C@@H](C(C)C)N3CC4(CCN(c5ncnnc5Oc5ccc(F)cc5-c5cncnc5C5CC5)C4)C3)C2)n1 (single isomer, unassigned) [Compound 452] | 0.11 nM | 20 nM | – |
| CC(C)[C@H]([C@H]1C[C@@H](N2CCC3(CCO3)CC2)C1)N1CC2(CCN(c3ncnnc3Oc3ccc(F)cc3-c3cnncc3C3CC3)C2)C1 (single isomer, unassigned) [Compound 280a] | 5 nM | > 940 nM | – |
| CC(C)[C@H]([C@H]1C[C@H](N2CCNC(=O)C2)C1)N1CC2(CCN(c3ncnnc3Oc3ccc(F)cc3-c3cncnc3C3CC3)C2)C1 (single isomer, unassigned) [Compound 241] | 2.1 nM | 510 nM | – |
| CC(C)[C@H]([C@H]1C[C@@H](N2CC3(CCCO3)C2)C1)N1CC2(CCN(c3ncnnc3Oc3ccc(F)cc3-c3cncnc3C3CC3)C2)C1 (single isomer, unassigned) [Compound 246] | 0.3 nM | 180 nM | – |
| CC(=O)Nc1cc(NC2CC(C(C(C)C)N3CC4(CCN(c5ncnnc5Oc5ccc(F)cc5-c5cncnc5C5CC5)C4)C3)C2)ccn1 (stereo not shown) [Compound 407] | 0.11 nM | < 1.8 nM | – |
| CC(=O)N1CCCN([C@H]2C[C@@H]([C@@H](C(C)C)N3CC4(CCN(c5ncnnc5Oc5ccc(F)cc5-c5cncnc5C5CC5)C4)C3)C2)CC1 (single isomer, unassigned) [Compound 61] | 0.2 nM | 23 nM | – |
| CC(C)[C@H]([C@H]1C[C@@H](Nc2n[nH]c3ncccc23)C1)N1CC2(CCN(c3ncnnc3Oc3ccc(F)cc3-c3cncnc3C3CC3)C2)C1 (single isomer, unassigned) [Compound 448] | 0.18 nM | 4.6 nM | – |
